Test results: patent US11236059B2, “Targeted cytotoxic ratjadone derivatives and conjugates thereof” (HELMHOLTZ-ZENTRUM FUER INFEKTIONSFORSCHUNG GMBH, priority 2017, dated 2022)
Read-outs that look alike come from different tables or passages of the source. One block for each compound: values may come before it. Numbered stars: 1 amine (or outer) side, 2 acyl side, 3 side chain; on linkers, the order of the positions; unused ones are H or OH. Square brackets hold non-standard residues; d marks the D form. Peptide text beside a SMILES is read from it. * marks the point of attachment. Pteroyl = Nc1nc2ncc(CNc3ccc(C(=O)*)cc3)nc2c(=O)[nH]1; Orn(N3) = [N-]=[N+]=NCCC[C@H](N)C(=O)O; γGlu = O=C(O)[C@H](CCC(=O)[*:2])N[*:1]

Columns and labels:
[1] = test system: A549 (DSMZ ACC 107) cells; assay: cells; type: cell-based
Experimental: (§1) 60 μL of serial dilutions of the test compound were given to 120 μL of suspended cells (50.000/mL) in wells of 96-well plates. After 5 days of incubation growth inhibition (IC50) was determined using an MTT assay.^[64]

[2] = test system: KB 3.1 (DSMZ ACC 158) cells
[3] = test system: MCF-7 (DSMZ ACC 115) cells; assay: cells; type: cell-based
Experimental: as §1

[4] = test system: SKOV-3 (DSMZ ATCC HTB 77) cells; assay: cells; type: cell-based
Experimental: as §1

[5] = control compounds; cited from earlier work
L-929 (DSMZ ACC 2) cells = assay: Cell proliferation assay (MTT), L-929; type: cell-based; details: Mus musculus, L929, 120 h, read-out: IC50 [nM] L-929
Experimental: as §1

CRM1 = target: T1, CRM1 (Homo sapiens, UniProt O14980); assay: Monitoring export inhibitory activity (translocation biosensor, HeLaRevBio cells); type: cell-based; details: HeLa cells stably expressing translocation biosensor, 1h of incubation; read-out: IC50 [nM] CRM1 (nuclear export inhibition)
T1 construct: HeLa cells stably expressing a fluorescent translocation biosensor (HeLaRevBio); endogenous in cells; host or cells: HeLa (HeLaRevBio in A7; HeLa in A8)
T1 sequence (O14980 whole entry): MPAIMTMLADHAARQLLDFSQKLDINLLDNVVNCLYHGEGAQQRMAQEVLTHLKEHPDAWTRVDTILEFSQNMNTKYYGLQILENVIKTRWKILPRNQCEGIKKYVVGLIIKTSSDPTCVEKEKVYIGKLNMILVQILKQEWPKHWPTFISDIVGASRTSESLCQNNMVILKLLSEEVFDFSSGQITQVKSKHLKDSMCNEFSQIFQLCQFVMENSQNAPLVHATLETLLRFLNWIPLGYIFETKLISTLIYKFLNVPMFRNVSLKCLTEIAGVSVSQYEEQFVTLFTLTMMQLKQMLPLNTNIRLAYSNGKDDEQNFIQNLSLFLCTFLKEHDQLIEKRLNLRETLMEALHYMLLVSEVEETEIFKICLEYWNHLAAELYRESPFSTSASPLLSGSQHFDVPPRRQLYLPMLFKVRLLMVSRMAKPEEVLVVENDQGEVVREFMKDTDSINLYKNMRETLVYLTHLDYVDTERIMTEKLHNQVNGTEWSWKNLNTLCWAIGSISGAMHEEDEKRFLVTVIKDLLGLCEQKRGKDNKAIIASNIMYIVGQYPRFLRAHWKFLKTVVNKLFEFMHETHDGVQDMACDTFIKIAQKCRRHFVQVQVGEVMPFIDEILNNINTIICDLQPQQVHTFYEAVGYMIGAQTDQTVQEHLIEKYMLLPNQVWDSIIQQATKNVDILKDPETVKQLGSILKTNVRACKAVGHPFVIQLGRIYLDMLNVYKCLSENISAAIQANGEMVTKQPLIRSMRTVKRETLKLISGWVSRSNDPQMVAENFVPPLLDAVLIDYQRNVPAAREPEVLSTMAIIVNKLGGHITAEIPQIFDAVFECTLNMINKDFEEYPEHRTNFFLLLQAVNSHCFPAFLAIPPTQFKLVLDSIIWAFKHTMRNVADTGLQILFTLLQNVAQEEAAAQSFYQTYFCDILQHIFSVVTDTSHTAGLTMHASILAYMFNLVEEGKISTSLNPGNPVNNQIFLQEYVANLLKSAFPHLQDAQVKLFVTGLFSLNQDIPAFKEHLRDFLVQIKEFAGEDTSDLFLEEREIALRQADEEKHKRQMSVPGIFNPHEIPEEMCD
Experimental: Export inhibitory ability of compounds was evaluated with the translocation biosensor system. This cellular assay depends on a recombinantly expressed fusion protein consisting of a nuclear localization signal (SV40-NLS), glutathione S-transferase (GST), green fluorescent protein (GFP) and a nuclear export signal (HIV1-RevNES). Due to the two transport signals (NLS/NES), the biosensor is permanently shuttling between nucleus and cytoplasm but resides prominently in the cytoplasm due to a comparatively stronger NES. Export inhibiting compound induce a nuclear accumulation of the GFP-signal^[65,66] Cell lines were maintained as recommended by the American Type Culture Collection in DMEM containing 5% glutamine (Thermo Fisher Scientific, Waltham, USA) supplemented with 10% FBS (Thermo Fisher Scientific, Waltham, USA). For quantifying the nuclear export inhibitory effect, HeLa cells stably expressing a fluorescent translocation biosensor (HeLaRevBio)^[67] were seeded into black 96 well μclear plates (Greiner, Germany). They next day compounds were added covering an appropriate concentration range. After 1h of incubation, cells were fixed in 4% PFA for 10 min and permeabilized with 0.1% Triton X 100 in PBS for 5 min. After washing with PBS nuclei were labeled with Hoechst H33342 (30 min 10 μg/ml). The intracellular distribution of the biosensor-dependent GFP signal was quantitatively evaluated with the high content imaging system ImageXpress MicroXLS (Molecular Devices, Sunnyvale, USA). By using the translocation enhanced application module (Molecular Devices, Sunnyvale, USA) the GFP-intensity was quantified in the cytoplasm and nuclear region. As final readout the difference of Mean Inner and Mean Outer Intensity was calculated. IC50s of nuclear export inhibition were calculated using Sigma Plot with four parameter logistics curve regression (Systat Software GmbH, Erkrath, Germany). […] The following day compounds were added at 125 nM final concentration.

[6] = test system: KB 3.1 (DSMZ ACC 158) cells; assay: cells; details: Homo sapiens, KB 3-1, 120 h, read-out: IC50 [nM] KB-3.1, growth inhibition, 5 days of incubation, MTT assay
[7] = growth inhibition, 5 days of incubation, MTT assay, read-out: IC50 [nM] A-549 (carrier molecules)
[8] = read-out: IC50 [nM] KB-3.1 (carrier molecules), growth inhibition, 5 days of incubation, MTT assay
[9] = growth inhibition, 5 days of incubation, MTT assay, read-out: IC50 [nM] MCF-7 (carrier molecules)
[10] = growth inhibition, 5 days of incubation, MTT assay, read-out: IC50 [nM] SK-OV-3 (carrier molecules)
[11] = Homo sapiens, A549, 120 h, read-out: IC50 [nM] A-549, growth inhibition, 5 days of incubation, MTT assay
[12] = Homo sapiens, MCF7, 120 h, read-out: IC50 [nM] MCF-7, growth inhibition, 5 days of incubation, MTT assay
[13] = Homo sapiens, SK-OV-3, 120 h, read-out: IC50 [nM] SK-OV-3, growth inhibition, 5 days of incubation, MTT assay

SMILES: [N-]=[N+]=Nc1ccc(C(=O)NCCCC[C@H](NC(=O)CC[C@H](NC(=O)CC[C@H](NC(=O)c2ccc(NCc3cnc4nc(N)nc(O)c4n3)cc2)C(=O)O)C(=O)O)C(=O)O)cc1 [FA-N3-6, (3S,8S,13S)-1-(4-(((2-amino-4-hydroxypteridin-6-yl)methyl)amino)phenyl)-19-(4-azidophenyl)-1,6,11,19-tetraoxo-2,7,12,18-tetraazanonadecane-3,8,13-tricarboxylic acid]
IC50 [1, 7]: > 118000 nM
IC50 [2, 8]: > 118000 nM

IC50 [1, 7]: > 86400 nM
IC50 [2, 8]: > 86400 nM
SMILES: [N-]=[N+]=NCCC[C@H](NC(=O)[C@@H](CC(=O)O)NC(=O)[C@@H](CC(=O)O)NC(=O)[C@@H](CC(=O)O)NC(=O)[C@@H](CC(=O)O)NC(=O)[C@@H](CC(=O)O)NC(=O)CC[C@H](NC(=O)c1ccc(NCc2cnc3nc(N)nc(O)c3n2)cc1)C(=O)O)C(=O)O [FA-N3-5, N^2-(4-(((2-amino-4-hydroxypteridin-6-yl)methyl)amino)benzoyl)-N5-((R)-1-(((R)-1-(((R)-1-(((R)-1-(((R)-1-(((S)-4-azido-1-carboxybutyl)amino)-3-carboxy-1-oxopropan-2-yl)amino)-3-carboxy-1-oxopropan-2-yl)amino)-3-carboxy-1-oxopropan-2-yl)amino)-3-carboxy-1-oxopropan-2-yl)amino)-3-carboxy-1-oxopropan-2-yl)-L-glutamine] ({Pteroyl-γGlu}-[dD][dD][dD][dD][dD][Orn(N3)]-OH)

IC50 [1, 7]: > 663000 nM
IC50 [3, 9]: > 663000 nM
IC50 [4, 10]: > 663000 nM
IC50 [2, 8]: > 663000 nM
SMILES: CC(C)C[C@H](NC(=O)[C@@H](CCCN=[N+]=[N-])NC(=O)[C@H](Cc1ccc(O)cc1)NC(=O)[C@H](CO)NC(=O)[C@H](Cc1c[nH]c2ccccc12)NC(=O)[C@H](Cc1c[nH]cn1)NC(=O)[C@@H]1CCC(=O)N1)C(=O)N[C@@H](CCCNC(=N)N)C(=O)N1CCC[C@H]1C(=O)NNC(N)=O [D-N3-Orn-Goserellin, (S)—N-((6S,9S,12R,15S,18S,21S,24S)-21-((1H-indol-3-yl)methyl)-1-amino-12-(3-azidopropyl)-6-((S)-2-(2-carbamoylhydrazine-1-carbonyl)pyrrolidine-1-carbonyl)-15-(4-hydroxybenzyl)-18-(hydroxymethyl)-25-(1H-imidazol-4-yl)-1-imino-9-isobutyl-8,11,14,17,20,23-hexaoxo-2,7,10,13,16,19,22-heptaazapentacosan-24-yl)-5-oxopyrrolidine-2-carboxamide]

IC50 [1, 7]: > 140000 nM
IC50 [2, 8]: > 140000 nM
SMILES: [N-]=[N+]=NCCC[C@H](NC(=O)CC[C@H](NC(=O)c1ccc(NCc2cnc3nc(N)nc(O)c3n2)cc1)C(=O)O)C(=O)N[C@H](CCCCN)C(=O)O [FA-N3-9, ((S)-2-((S)-4-(4-(((2-amino-4-hydroxypteridin-6-yl)methyl)amino)benzamido)-4-carboxybutanamido)-5-azidopentanoyl)-D-lysine]

SMILES: CCCOc1cc(N)ccc1C(=O)OCCN(CC)CC [propoxycaine]
stability in mouse plasma [5]: unstable

IC50 [1, 7]: > 727000 nM
IC50 [3, 9]: > 727000 nM
IC50 [4, 10]: > 727000 nM
IC50 [2, 8]: > 727000 nM
SMILES: CC(C)C[C@H](NC(=O)[C@H](CCCN=[N+]=[N-])NC(=O)[C@H](Cc1ccc(O)cc1)NC(=O)[C@H](CO)NC(=O)[C@H](Cc1c[nH]c2ccccc12)NC(=O)[C@H](Cc1c[nH]cn1)NC(=O)[C@@H]1CCC(=O)N1)C(=O)N[C@@H](CCCNC(=N)N)C(=O)N1CCC[C@H]1C(=O)NCC(N)=O [L-N3-Orn-LHRH, (S)-1-(((S)-2-((S)-2-((S)-2-((S)-2-((S)-3-(1H-imidazol-4-yl)-2-((S)-5-oxopyrrolidine-2-carboxamido)propanamido)-3-(1H-indol-3-yl)propanamido)-3-hydroxypropanamido)-3-(4-hydroxyphenyl)propanamido)-5-azidopentanoyl)-L-leucyl-L-arginyl)-N-(2-amino-2-oxoethyl)pyro-lidine-2-carboxamide]

IC50 [1]: 318 nM
IC50 [3]: 47.4 nM
IC50 [4]: 190 nM
IC50 [2]: 1110 nM
SMILES: CC(C)C[C@H](NC(=O)C(CCCN=[N+]=[N-])NC(=O)[C@H](Cc1ccc(O)cc1)NC(=O)[C@H](CO)NC(=O)[C@H](Cc1c[nH]c2ccccc12)NC(=O)[C@H](Cc1c[nH]cn1)NC(=O)[C@@H]1CCC(=O)N1)C(=O)N[C@@H](CCCNC(=N)N)C(=O)N1CCC[C@H]1C(=O)NCC(N)=O (stereo in doubt) [D-N3-Orn-LHRH, (S)-1-(((R)-2-((S)-2-((S)-2-((S)-2-((S)-3-(1H-imidazol-4-yl)-2-((S)-5-oxopyrrolidine-2-carboxamido)propanamido)-3-(1H-indol-3-yl)propanamido)-3-hydroxypropanamido)-3-(4-hydroxyphenyl)propanamido)-5-azidopentanoyl)-L-leucyl-L-arginyl)-N-(2-amino-2-oxoethyl)pyrrolidine-2-carboxamide]

SMILES: CCN(CC)CCOC(=O)c1ccc(N)cc1 [Procaine, procaine]
stability in mouse plasma [5]: unstable

SMILES: C/C=C/[C@@H]1O[C@H](C(=O)/C=C/C=C(\C)C[C@@H](C)/C=C(C)\C=C\[C@H]2CC=CC(=O)O2)C[C@@H](O)[C@@H]1C [16-Oxo-Ratjadone 8, (R)-6-((R,1E,3Z,7E,9E)-11-((2S,4R,5S,6S)-4-hydroxy-5-methyl-6-((E)-prop-1-en-1-yl)tetrahydro-2H-pyran-2-yl)-3,5,7-trimethyl-11-oxoundeca-1,3,7,9-tetraen-1-yl)-5,6-dihydro-2H-pyran-2-one]
IC50 [1, 11]: 1.76 nM
IC50 [3, 12]: 0.22 nM
IC50 [4, 13]: 0.24 nM
IC50 (L-929 (DSMZ ACC 2) cells): 12.6 nM
IC50 (CRM1): 52.5 nM
IC50 [6]: 2.57 nM

IC50 [1, 7]: > 405000 nM
IC50 [3, 9]: > 405000 nM
IC50 [4, 10]: > 405000 nM
IC50 [2, 8]: > 405000 nM
SMILES: CC(C)C[C@H](NC(=O)CNC(=O)[C@H](Cc1ccc(O)cc1)NC(=O)[C@H](CO)NC(=O)[C@H](Cc1c[nH]c2ccccc12)NC(=O)[C@H](Cc1c[nH]cn1)NC(=O)[C@@H]1CCC(=O)N1)C(=O)N[C@@H](CCCNC(=N)N)C(=O)N1CCC[C@H]1C(=O)NCC(N)=O [LHRH, (S)—N-(2-amino-2-oxoethyl)-1-(((S)-5-oxopyrrolidine-2-carbonyl)-L-histidyl-L-tryptophyl-L-seryl-L-tyrosylglycyl-L-leucyl-L-arginyl)pyrrolidine-2-carboxamide, reference compound]

SMILES: C#CCCOC(=O)N[C@H](/C=C/C=C(\C)C[C@@H](C)/C=C(C)\C=C\[C@H]1CC=CC(=O)O1)[C@@H]1C[C@@H](O)[C@H](C)[C@H](/C=C/C)O1 [Compound 24, But-3-yn-1-yl ((1R,2E,4E,7R,8Z,10E)-1-((2S,4R,5S,6S)-4-hydroxy-5-methyl-6-((E)-prop-1-en-1-yl)tetrahydro-2H-pyran-2-yl)-5,7,9-trimethyl-11-((R)-6-oxo-3,6-dihydro-2H-pyran-2-yl)undeca-2,4,8,10-tetraen-1-yl)carbamate]
IC50 [1, 11]: 1.25 nM
IC50 [3, 12]: 0.27 nM
IC50 [4, 13]: 0.45 nM
IC50 (CRM1): 46.1 nM
IC50 [6]: 0.47 nM
